Assay results taken from patent US7112584B2, “Nonsteroidal antiinflammatory agents” (Schering AG, priority 2002, dated 2006).
Where two headings read alike, the source gives them in different places.

What was measured:
[1] = target: T1, GR (IL-6 promoter) (Homo sapiens, UniProt P04150); assay: reporter gene test in HeLa cells, transrepression, IL-6 promoter-luciferase; conditions: for Emax: HeLa, read-out: Transrepression (TR)(IL-6-Promoter) Efficacy
T1 sequence (P04150 1-777): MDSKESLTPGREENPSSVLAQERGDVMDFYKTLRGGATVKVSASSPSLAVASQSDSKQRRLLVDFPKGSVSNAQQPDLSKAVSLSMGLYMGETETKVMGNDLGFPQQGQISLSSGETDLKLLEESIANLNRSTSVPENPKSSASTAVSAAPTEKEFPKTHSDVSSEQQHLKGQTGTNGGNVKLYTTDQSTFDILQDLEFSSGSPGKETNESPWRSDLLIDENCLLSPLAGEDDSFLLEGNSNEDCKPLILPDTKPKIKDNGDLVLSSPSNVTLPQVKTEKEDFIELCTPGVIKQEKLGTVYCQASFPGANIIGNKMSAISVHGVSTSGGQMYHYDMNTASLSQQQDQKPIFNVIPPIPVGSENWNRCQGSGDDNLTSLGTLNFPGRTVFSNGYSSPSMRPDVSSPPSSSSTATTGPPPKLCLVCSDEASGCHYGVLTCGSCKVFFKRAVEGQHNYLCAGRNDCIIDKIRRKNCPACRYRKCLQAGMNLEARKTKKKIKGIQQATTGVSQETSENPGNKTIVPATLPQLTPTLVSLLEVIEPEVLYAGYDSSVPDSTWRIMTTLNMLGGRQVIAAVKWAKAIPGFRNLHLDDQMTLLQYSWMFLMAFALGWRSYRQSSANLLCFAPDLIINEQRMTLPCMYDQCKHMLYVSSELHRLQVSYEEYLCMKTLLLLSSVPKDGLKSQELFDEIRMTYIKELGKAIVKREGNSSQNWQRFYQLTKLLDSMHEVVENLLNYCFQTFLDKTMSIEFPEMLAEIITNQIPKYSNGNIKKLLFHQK
Experimental: (§1) The MMTV promoter (transactivation) and the IL-6 promoter (transrepression) in each case were upstream to the gene that codes for the luciferase. By means of the photometric determination of the enzyme activity of the luciferase, it was possible to measure the activation of the transcription (MMTV-promoter-construct) or the inhibition of the transcription (IL-6-promoter-construct) by the GR.
(§2) This dissociation of the mechanisms of action was determined with the aid of the reporter gene test in stable transfixed human HeLa cells. To determine the transactivation induced by the GR, the MMTV promoter, which is set before a luciferase gene, is used. Via the photometric determination of the luciferase activity, it was possible to determine the transactivation activities of the GR after binding the test compounds. The inhibition of the transcription of the luciferase gene, induced by tetradecanoyl-phorbol acetate (TPA) under the control of the IL-6 promoter or the collagenase promoter (transpression) by the GR after binding the test substances, was also determined by the measurement of luciferase activity in HeLa cells.

[2] = target: T2, human GR (Homo sapiens, UniProt P04150); assay: glucocorticoid receptor (GR) binding test, cytosol of Sf9 cells, [3H]-dexamethasone; conditions: human GR from Sf9 cytosol
T2 construct: made in house; host or cells: Sf9 cells infected with recombinant baculovirus (cytosol preparation)
T2 sequence (P04150 1-777): T1 sequence (P04150 1-777)
From the text: The binding of substances to the glucocorticoid receptor (GR) is examined with the aid of a recombinantly produced receptor. Cytosol preparations of Sf9 cells, which had been infected with recombinant baculoviruses, which code for the GR, are used for the binding studies.

[3] = test system: secretion of cytokine IL-8 in human monocyte cell line THP-1; assay: inhibition of LPS-triggered IL-8 secretion in THP-1 cells (ELISA); type: cell-based; set-up: Inhibition of IL-8 Secretion Efficacy: concentration or dose not given beside the values; conditions: THP-1, LPS-triggered
Experimental: The concentration of the cytokines was determined in the supernatant with use of commercially available ELISA kits.
The potency of the inflammation inhibition is determined by the inhibition of the secretion of cytokine IL-8 in a cellular test. […] The concentration of the cytokine was determined in the supernatant by commercially available ELISA kits. In this connection, the compounds of formula I show a high to very high potency and action (>50%) in the inhibition (see Table 4). The potency of the racemates is considerably lower than that of the pure enantiomers.

[4] = target: T3, GR (MMTV promoter) (Homo sapiens, UniProt P04150); assay: reporter gene test in HeLa cells, transactivation, MMTV promoter-luciferase; conditions: for TA:TR EC50:IC50: MMTV promoter EC50 : IL-6 promoter IC50
T3 sequence (P04150 1-777): T1 sequence (P04150 1-777)
Experimental: as §1, §2

[5] = target: T4, GR (collagenase promoter) (Homo sapiens, UniProt P04150); assay: reporter gene test in HeLa cells, transrepression, collagenase promoter-luciferase; type: cell-based; conditions: TPA-induced; for IC50: read-out: Transrepression (TR)(Collagenase Promoter) IC50
T4 construct: endogenous in cells; host or cells: HeLa cells stably transfected with promoter-luciferase reporters (MMTV, IL-6 or collagenase promoter)
T4 sequence (P04150 1-777): T1 sequence (P04150 1-777)

[6] = test system: tyrosinamino transferase (TAT); assay: induction of tyrosinamino transferase (TAT) in liver homogenates; type: in vivo; conditions: mice, 8 hours after administration, vs untreated control
From the text: One of the most frequent undesirable effects of a glucocorticoid therapy is the so-called “steroid diabetes” [cf. Hatz, H. J., Glucocorticoide: Immunologische Grundlagen, Pharmakologie und Therapierichtlinien [Glucocorticoids: Immunological Bases, Pharmacology and Therapy Guidelines], Wissenschaftliche Verlagsgesellschaft mbH, Stuttgart, 1998]. The reason for this is the stimulation of the gluconeogenesis in the liver by induction of the enzymes that are responsible for this effect and by free amino acids, which develop from the degradation of proteins (catabolic action of glucocorticoids). A key enzyme of the catabolic metabolism in the liver is the tyrosinamino transferase (TAT). The activity of this enzyme can be determined photometrically from liver homogenates and represents a good yardstick of the undesirable metabolic actions of the glucocorticoids. To measure the TAT induction, the animals are sacrificed 8 hours after the test substances are administered, the livers are removed, and the TAT activity in the homogenate is measured.
As parameters for the side effects of the catabolic metabolism induced by steroids, the activity of the enzyme tyrosinamino transferase (TAT) was determined by photometry from liver homogenates. The activity represents a good yardstick for the undesirable catabolic actions of the glucocorticoids. To measure the TAT induction, the animals (mice and rats) are killed 8 hours after the test substance is administered, the liver is removed, and the TAT activity is measured in the homogenates.

[7] = test system: croton oil-induced inflammation; assay: croton oil-induced ear inflammation, edema formation in mice; type: in vivo; conditions: systemic, two hours before croton oil, ear weight
Experimental: The antiinflammatory actions of the compounds of general formula I were tested in the animal experiment by tests in the croton oil-induced inflammation in rats and mice (J. Exp. Med. (1995), 182, 99–108). In this connection, croton oil in ethanolic solution was administered topically to the animals' ears. The test substances were also administered topically or systemically simultaneously with or two hours before the croton oil. After 16–24 hours, the ear weight was measured as a yardstick of the inflammatory edema, the peroxidase activity was measured as a yardstick of the invasions of granuloctyes, and the elastase activity was measured as a yardstick of the invasion of neutrophilic granuloctyes.
The antiinflammatory action of the compounds of general formula I were tested in an animal experiment in croton oil-induced inflammation in mice and in rats (J. Exp. Med. (1995), 182, 99–108). In this connection, croton oil in ethanolic solution was administered topically to the animals' ears. The test substances were systemically administered for two hours before the croton oil. After 16–24 hours, the ear weight was measured as a yardstick for the inflammatory edema.

[8] = HeLa cells, TPA-induced, luciferase
[9] = read-out: Transrepression (TR)(IL-6-Promoter) IC50, HeLa cells, TPA-induced, luciferase
[10] = read-out: Transactivating (TA)(MMTV-Promoter) EC50, HeLa cells, luciferase

Cc1noc(=O)c2ccc(NC(=O)C(O)(CC(C)(C)c3cccc4c3OCO4)C(F)(F)F)cc12 (racemic) [Example 1, (±)-6-[4-(Benzo[1,3]dioxol-4-yl)-2-hydroxy-4-methyl-2-trifluoromethyl-valeroyl-amino]-4-methyl-2,3-benzoxazin-1-one]
IC50 [1]: 2 nM | Emax [1]: 84% | IC50 [2]: 1.5 nM | IC50 ([3]; Homo sapiens): 76 nM | Inhibition of IL-8 Secretion Efficacy [3]: 51%

Cc1noc(=O)c2ccc(NC(=O)C(O)(CC3(c4cccc5c4OCO5)CC3)C(F)(F)F)cc12 (racemic) [Example 3]
IC50 [1]: 5.9 nM | Emax [1]: 66% | IC50 ([3]; Homo sapiens): 39 nM | Inhibition of IL-8 Secretion Efficacy [3]: 53%

Cc1noc(=O)c2ccc(NC(=O)C(O)(CC3(c4cccc5c4OCC5)CC3)C(F)(F)F)cc12 (racemic) [Example 12]
IC50 [2]: 0.85 nM | IC50 ([3]; Homo sapiens): 42 nM | Inhibition of IL-8 Secretion Efficacy [3]: 52%

Cc1noc(=O)c2ccc(NC(=O)C(O)(CC3(c4cccc5c4OCC5)CCC3)C(F)(F)F)cc12 (racemic) [Example 14]
Transrepression (TR)(IL-6-Promoter) Efficacy [1, 8]: 85% | IC50 [1, 9]: 4.2 nM | IC50 [3]: 71 nM | Inhibition of IL-8 Secretion Efficacy [3]: 61%

COc1c(F)cccc1C1(CC(O)(C(=O)Nc2ccc3c(=O)onc(C)c3c2)C(F)(F)F)CCC1 (racemic) [Example 31]
IC50 [1]: 5.4 nM | Emax [1]: 67% | IC50 [2]: 14 nM

Cc1noc(=O)c2ccc(NC(=O)C(O)(CC3(c4cccc5c4OCC5)CCC3)C(F)(F)F)cc12 (single isomer, unassigned) [Example 15]
Transrepression (TR)(IL-6-Promoter) Efficacy [1, 8]: 74% | IC50 [1, 9]: 1.5 nM | IC50 [3]: 7.5 nM | Inhibition of IL-8 Secretion Efficacy [3]: 74%

CCc1noc(=O)c2ccc(NC(=O)C(O)(CC3(c4cccc5c4OCC5)CCC3)C(F)(F)F)cc12 (single isomer, unassigned) [Example 17]
Transrepression (TR)(IL-6-Promoter) Efficacy [1, 8]: 73% | IC50 [1, 9]: 4.6 nM | Transactivating (TA)(MMTV-Promoter) Efficacy ([4]; HeLa cells, luciferase): 50% | TA:TR EC50:IC50 [4]: 8.7 | EC50 [4, 10]: 40 nM

Cc1noc(=O)c2ccc(NC(=O)C(O)(CC(C)(C)c3cc(F)cc4c3OCO4)C(F)(F)F)cc12 (single isomer, unassigned) [Example 19]
IC50 [1]: 3.8 nM | Emax [1]: 91%

Cc1noc(=O)c2ccc(NC(=O)C(O)(CC(C)(C)c3cccc4ccoc34)C(F)(F)F)cc12 (single isomer, unassigned) [Example 23]
Transrepression (TR)(IL-6-Promoter) Efficacy [1, 8]: 78% | IC50 [1, 9]: 1.6 nM | Transactivating (TA)(MMTV-Promoter) Efficacy ([4]; HeLa cells, luciferase): 76% | TA:TR EC50:IC50 [4]: 6.2 | EC50 [4, 10]: 10 nM | Transrepression (TR)(Collagenase Promoter) Efficacy [5]: 78% | IC50 [5]: 4.9 nM | Induction Factor for TAT with 3 mg/kg [6]: 1.1 | Induction Factor for TAT with 30 mg/kg [6]: 1.0

COc1c(F)cccc1C1(CC(O)(C(=O)Nc2ccc3c(=O)onc(C)c3c2)C(F)(F)F)CCC1 (single isomer, unassigned) [Example 32]
IC50 [1]: 2.2 nM | Emax [1]: 76% | IC50 [2]: 3 nM

Cc1noc(=O)c2ccc(NC(=O)C(O)(CC3(c4cccc(F)c4O)CCC3)C(F)(F)F)cc12 (single isomer, unassigned) [Example 33]
IC50 [1]: 2.2 nM | Emax [1]: 80% | EC50 [4]: 49 nM | Transactivating (TA)(MMTV-Promoter) Efficacy ([4]; HeLa cells, luciferase): 76% | TA:TR EC50:IC50 [4]: 22.3

Cc1noc(=O)c2ccc(NC(=O)C(O)(CC3(c4cccc5c4OCO5)CC3)C(F)(F)F)cc12 (single isomer, unassigned; (+)) [Example 4]
Transrepression (TR)(IL-6-Promoter) Efficacy [1, 8]: 80% | IC50 [1, 9]: 1.5 nM | IC50 [3]: 29 nM | Inhibition of IL-8 Secretion Efficacy [3]: 62%

Cc1noc(=O)c2ccc(NC(=O)C(O)(CC(C)(C)c3cc(Br)ccc3O)C(F)(F)F)cc12 (single isomer, unassigned; (+)) [Example 7, (+)-6-[4-(5-Bromo-2-hydroxyphenyl)-2-hydroxy-4-methyl-2-(trifluoromethyl)valeroylamino]-4-methyl-2,3-benzoxazin-1-one]
Edema Inhibition with 3 mg/kg [7]: 22% | Edema Inhibition with 30 mg/kg [7]: 75% | Induction Factor for TAT with 3 mg/kg [6]: 1.2 | Induction Factor for TAT with 30 mg/kg [6]: 2.4

CCc1noc(=O)c2ccc(NC(=O)C(O)(CC(C)(C)c3cccc4ccoc34)C(F)(F)F)cc12 (single isomer, unassigned; (+)) [Example 8, (+)-4-Ethyl-6-[4-(7-benzofuranyl)-2-hydroxy-4-methyl-2-trifluoromethylvaleroylamino]-2,3-benzoxazin-1-one]
IC50 [1]: 2.8 nM | Emax [1]: 67% | EC50 [4]: 50 nM | Transactivating (TA)(MMTV-Promoter) Efficacy ([4]; HeLa cells, luciferase): 25% | TA:TR EC50:IC50 [4]: 17.8 | Edema Inhibition with 3 mg/kg [7]: 33% | Edema Inhibition with 30 mg/kg [7]: 52%

C[C@@H]1C[C@H]2[C@@H]3CCC4=CC(=O)C=C[C@]4(C)[C@@]3(F)[C@@H](O)C[C@]2(C)[C@@]1(O)C(=O)CO [Dexamethasone, reference compound]
Transrepression (TR)(IL-6-Promoter) Efficacy [1, 8]: 100% | Transactivating (TA)(MMTV-Promoter) Efficacy ([4]; HeLa cells, luciferase): 100% | Transrepression (TR)(Collagenase Promoter) Efficacy [5]: 100%

C[C@]12C=CC(=O)C=C1CC[C@@H]1[C@@H]2[C@@H](O)C[C@@]2(C)[C@H]1CC[C@]2(O)C(=O)CO [Prednisolone, reference compound]
Emax [1]: 94% | IC50 ([3]; Homo sapiens): 18 nM | Inhibition of IL-8 Secretion Efficacy [3]: 92% | Transrepression (TR)(Collagenase Promoter) Efficacy [5]: 96% | Edema Inhibition with 3 mg/kg [7]: 35% | Edema Inhibition with 30 mg/kg [7]: 84% | Induction Factor for TAT with 3 mg/kg [6]: 2.6 | Induction Factor for TAT with 30 mg/kg [6]: 8.0

(+)-6-[3-(Benzo[1,3]dioxol-4-yl)-cyclobutyl-2-hydroxy-2-trifluoromethyl-propionyl-amino]-4-methyl-2,3-benzoxazin-1-one [Example 6]
Transrepression (TR)(IL-6-Promoter) Efficacy [1, 8]: 77% | IC50 [1, 9]: 1.2 nM | Transrepression (TR)(Collagenase Promoter) Efficacy [5]: 95% | IC50 [5]: 2.6 nM
